Experiment [1] has as its target T1, His tagged PTPN2 (TC45) protein (Homo sapiens, UniProt P17706).
T1 construct: His; made in house
T1 sequence (P17706 1-387 isoform P17706-2): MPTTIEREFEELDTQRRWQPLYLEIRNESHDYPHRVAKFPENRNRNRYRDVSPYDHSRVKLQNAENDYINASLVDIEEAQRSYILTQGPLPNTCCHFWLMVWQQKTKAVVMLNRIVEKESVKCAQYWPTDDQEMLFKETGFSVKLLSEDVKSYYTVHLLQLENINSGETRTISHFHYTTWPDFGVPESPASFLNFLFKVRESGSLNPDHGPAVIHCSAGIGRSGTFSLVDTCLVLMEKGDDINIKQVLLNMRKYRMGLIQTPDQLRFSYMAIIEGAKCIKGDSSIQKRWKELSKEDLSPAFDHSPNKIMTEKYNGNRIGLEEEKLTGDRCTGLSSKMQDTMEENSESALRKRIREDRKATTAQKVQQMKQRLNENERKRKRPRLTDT
In words: Mobility Shift Assay (MSA) for PTPN2 inhibitors. Format: biochemical. To be noted: for Thiochromane x-fold>potency biochemical: PTPN2 MSA IC50 of chromane comparator over thiochromane. As for the experimental part:
Example 43: Mobility Shift Assay (MSA) Used to Determine Potency of PTPN2 Inhibitors
Compound activity was determined using in house His tagged PTPN2 (TC45) protein (SEQ ID NO: 1) in an in vitro enzymatic reaction. The enzymatic assay used to determine activity was a mobility shift assay using a LabChip EZ Reader by Caliper Life Sciences. The enzymatic reaction was carried out in assay buffer (50 mM HEPES pH 7.5, 1 mM EGTA, 10 mM EDTA, 0.01% Tween® 20, and 2 mM DTT). The compounds were dispensed on a white 384 well ProxiPlate™ (PerkinElmer Catalog #6008289) plate using the Labcyte Echo at varying concentrations (12 point, 1:3 dilution). The enzyme (at 0.5 nM) was incubated with compound for 10 minutes at room temperature. Thereafter, the substrate (phosphorylated insulin receptor probe sequence: ((OG488)-(NH—CH2—CH2—O—CH2—CH2—O—CH2—CO)-T-R-D-I—(PY)-E-T-D-Y—Y—R—K—K—NH2) (SEQ ID NO: 2) was added at 2 μM to the plates and incubated for another 10 minutes at room temperature. Finally, a quench solution (water and 4-bromo-3-(2-oxo-2-propoxyethoxy)-5-(3-{[1-(phenylmethanesulfonyl)piperidin-4-yl]amino}phenyl)thiophene-2-carboxylic acid) was added to the plates, which were then run on the EZ Reader (excitation 488 nm, emission 530 nm) to measure % conversion (the amount of phosphorylated substrate which was de-phosphorylated by PTPN2). […] The % inhibition was then used to calculate the IC50 values.

For experiment [2], the target named is T2, His tagged full-length PTPN1 protein (Homo sapiens, UniProt P18031).
T2 construct: His; made in house
T2 sequence (P18031 1-435): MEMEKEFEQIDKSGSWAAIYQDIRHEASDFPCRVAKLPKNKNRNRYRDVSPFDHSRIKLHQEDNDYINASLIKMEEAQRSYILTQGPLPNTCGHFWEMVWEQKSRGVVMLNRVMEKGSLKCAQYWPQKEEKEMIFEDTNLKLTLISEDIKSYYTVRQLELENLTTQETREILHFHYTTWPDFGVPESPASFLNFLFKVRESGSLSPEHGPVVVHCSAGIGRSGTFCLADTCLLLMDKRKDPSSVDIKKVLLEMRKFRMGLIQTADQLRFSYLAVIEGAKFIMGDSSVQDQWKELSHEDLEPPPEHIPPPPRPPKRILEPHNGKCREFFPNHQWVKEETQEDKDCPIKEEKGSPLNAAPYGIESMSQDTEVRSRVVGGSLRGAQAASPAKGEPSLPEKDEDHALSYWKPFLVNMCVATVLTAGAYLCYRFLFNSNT
Kind of experiment: Mobility Shift Assay (MSA) for PTPN1 inhibitors. The following applies: enzyme 0.5 nM, substrate 2 μM, 10 minutes preincubation at room temperature. It is filed as biochemical. As for the experimental part: Example 44: Mobility Shift Assay (MSA) Used to Determine Potency of PTPN1 Inhibitors
Compound activity was determined using in house His tagged full-length PTPN1 protein (SEQ ID NO: 3) in an in vitro enzymatic reaction. The enzymatic assay used to determine activity is a mobility shift assay using a LabChip EZ Reader by Caliper Life Sciences. The enzymatic reaction was carried out in assay buffer (50 mM HEPES pH 7.5, 1 mM EGTA, 10 mM EDTA, 0.010% Tween® 20, and 2 mM DTT). The compounds were dispensed on a white 384 well ProxiPlate™ (PerkinElmer Cat #6008289) plate using a Labcyte Echo® liquid handler at varying concentrations (12 point, 1:3 dilution). The enzyme (at 0.5 nM) was incubated with compound for 10 minutes at room temperature. Thereafter, the substrate (phosphorylated insulin receptor probe sequence: ((OG488)-(NH—CH2—CH2—O—CH2—CH2—O—CH2—CO)-T-R-D-I—(PY)-E-T-D-Y—Y—R—K—K—NH2) (SEQ ID NO: 2) was added at 2 μM to the plates and incubated for another 10 minutes at room temperature. Finally, a quench solution (water and 4-bromo-3-(2-oxo-2-propoxyethoxy)-5-(3-{[1-(phenylmethanesulfonyl)piperidin-4-yl]amino}phenyl)thiophene-2-carboxylic acid) was added to the plates, which were then run on the EZ Reader (excitation 488 nm, emission 530 nm) to measure % conversion (the amount of phosphorylated substrate which was de-phosphorylated by PTPN1). […] The % inhibition was then used to calculate the IC50 values.

In experiment [3] the test system is IFNγ-induced STAT1 phosphorylation (pSTAT1) in B16F10 cells. In words: B16F10 Phospho-STAT1 HTRF proximal pharmacodynamic (PD) assay. It is filed as cell-based, murine. The following applies: for EC50: B16-F10; for Thiochromane x-fold>potency cellular: pSTAT1 EC50 of chromane comparator over thiochromane. As for the experimental part: Example 45: B16F10 (Murine Melanoma Cells) Phospho-STAT1 HTRF Proximal Pharmacodynamic (PD) Assay
B16F10 cells were grown and maintained in high glucose DMEM (Gibco, Catalog #11965-092, Dun Laoghaire Co Dublin) supplemented with 10% fetal bovine serum (Gibco, Catalog #10082-139, Dun Laoghaire Co Dublin). The cells were pelleted and resuspended in high glucose DMEM without phenol red (Gibco, Catalog #11054-020, Dun Laoghaire Co Dublin), supplemented with 10% fetal bovine serum and plated in a 384 well Corning plate (product #3765, Corning, NY) at 11,000 cells per well in a volume of 20 μL. The cells were dosed with the compounds of interest using an Echo Liquid Handler (Beckman Coulter, Brea, CA) at 50 μM top dose with 3-fold dilutions down to 0.002679 μM for a 10-point dose response. The plate was incubated for 3 hours at 37° C. and subsequently treated with recombinant mouse IFNγ (R&D Systems, Catalog #485-MI, Minneapolis, MN; 100 nM final concentration) for 10 minutes at 37° C. to induce STAT1 phosphorylation followed by 3.3 μM staurosporine treatment for 1 hour at 37° C. to terminate phosphorylation. Media was then aspirated and 20 μL of 1× lysis buffer/blocking reagent (Cisbio Phospho-STAT1 kit, part #63ADK026PEH, Bedford, MA) was added. The plate was placed on a plate shaker for 30 minutes at room temperature, sealed, and stored at −80° C. until needed. To thaw, the plate was placed on shaker at room temperature until completely thawed while the antibody master mix was made (1:40 Phospho-STAT1 Eu Cryptate antibody, 1:40 Phospho-STAT1 d2 antibody, with the detection buffer; Cisbio Phospho-STAT1 kit, part #63ADK026PEH, Bedford, MA). The antibody master mix was then dispensed at 4 μL per well into a 384 ProxiPlate Plus (PerkinElmer, part #6008289, Waltham, MA) and 16 μL of lysate was added from the Corning plate to the Proxiplate using a VIAFLO 384 (INTEGRA). The plate was incubated for 3 hours at room temperature and read on an EnVision® (Perkin Elmer) plate reader with laser excitation at 335 nm and emission at 665 nm. Dotmatics Studies (Bishop's Stortford, UK) was utilized to generate all dose-response curves and calculate EC50s and are shown in Table 2.

[4] abbreviates: enzyme 0.5 nM, substrate 2 μM, 10 minutes preincubation at room temperature.
Where [5] appears, read: Table 2, 3 hours compound, then mouse IFNγ 100 nM 10 minutes, top dose 50 μM, read-out: B16F10 IFNγ Induced pSTAT1 EC50.
[6] abbreviates: Mus musculus, Table 3, B16F10 cells, IFNγ-induced, thiochromanes (X = S) and chromane comparators (X = O), read-out: pSTAT1 EC50.

SMILES strings stand for the structures. Like-named read-outs stand apart in the source and are kept apart here.

Here are results for ten compounds from patent US20250042894A1, “PROTEIN TYROSINE PHOSPHATASE INHIBITORS AND METHODS OF USE THEREOF” (Calico Life Sciences LLC, priority 2021, published 2025).

With `O=C1CN(c2c(O)cc3c(c2F)C[C@H](NCCC2(CO)CCCC2)CS3)S(=O)(=O)N1` [Compound 105, 5-[(3S)-5-fluoro-7-hydroxy-3-({2-[1-(hydroxymethyl)cyclopentyl]ethyl}amino)-3,4-dihydro-2H-1-benzothiopyran-6-yl]-1λ^6,2,5-thiadiazolidine-1,1,3-trione], the half-inhibitory concentration (IC50) in experiment [1] (setting [4]) was less than 10 nM; in experiment [2], 10 to 100 nM. Besides, the concentration giving a half-maximal response (EC50) in experiment [3] (setting [5]) was 4810 nM.
For `CC1(CN[C@@H]2CSc3cc(O)c(N4CC(=O)NS4(=O)=O)c(F)c3C2)COC1` [Compound 127, 5-[(3S)-5-fluoro-7-hydroxy-3-{[(3-methyloxetan-3-yl)methyl]amino}-3,4-dihydro-2H-1-benzothiopyran-6-yl]-1λ^6,2,5-thiadiazolidine-1,1,3-trione], the IC50 in experiment [1] (setting [4]) and in experiment [2] was 10 to 100 nM each time. In addition, the concentration giving a half-maximal response (EC50) in experiment [3] (setting [5]) was 8970 nM.
On to `CCC(C)CCN[C@@H]1CSc2cc(O)c(N3CC(=O)NS3(=O)=O)c(F)c2C1` (stereo partly drawn) [Compound 108, 5-{(3S)-5-fluoro-7-hydroxy-3-[(3-methylpentyl)amino]-3,4-dihydro-2H-1-benzothiopyran-6-yl}-1λ^6,2,5-thiadiazolidine-1,1,3-trione], for which the half-inhibitory concentration (IC50) in experiment [1] (setting [4]) and in experiment [2] was less than 10 nM each time. For the same compound, in experiment [3] (setting [5]), the concentration for a half-maximal effect (EC50) was 1760 nM.
With `CC(C)(C)OC(=O)N[C@@H]1CSc2cc(O)c(N3CC(=O)NS3(=O)=O)c(F)c2C1` [Compound 101, tert-butyl [(3S)-5-fluoro-7-hydroxy-6-(1,1,4-trioxo-1λ^6,2,5-thiadiazolidin-2-yl)-3,4-dihydro-2H-1-benzothiopyran-3-yl]carbamate], the half-maximal inhibitory concentration (IC50) in experiment [2] is more than 100 nM.
For the compound `O=C1CN(c2c(O)cc3c(c2F)C[C@H](NCC2(CF)CC2)CS3)S(=O)(=O)N1` [Compound 128, 5-[(3S)-5-fluoro-3-({[1-(fluoromethyl)cyclopropyl]methyl}amino)-7-hydroxy-3,4-dihydro-2H-1-benzothiopyran-6-yl]-1λ^6,2,5-thiadiazolidine-1,1,3-trione], in experiment [1] (Table 3), the “Thiochromane x-fold>potency biochemical” value is listed as 1.2. Further, the IC50 in experiment [1] (setting [4]) and in experiment [2] was 10 to 100 nM throughout. For the same compound, the EC50 in experiment [3] (setting [5]) and in experiment [3] (setting [6]) was 25700 nM throughout. For the same compound, the “Thiochromane x-fold>potency cellular” value in experiment [3] (Table 3) is given as more than 1.9.
In the case of `CC1(CCN[C@@H]2CSc3cc(O)c(N4CC(=O)NS4(=O)=O)c(F)c3C2)CC1` [Compound 132, 5-[(3S)-5-fluoro-7-hydroxy-3-{[2-(1-methylcyclopropyl)ethyl]amino}-3,4-dihydro-2H-1-benzothiopyran-6-yl]-1λ^6,2,5-thiadiazolidine-1,1,3-trione], the values for the concentration for half-maximal inhibition (IC50) in experiment [1] (setting [4]) and in experiment [2] were less than 10 nM and 10 to 100 nM, respectively. The EC50 in experiment [3] (setting [5]) worked out at 1580 nM.
For `COCCCN[C@@H]1CSc2cc(O)c(N3CC(=O)NS3(=O)=O)c(F)c2C1` [Compound 130, 5-{(3S)-5-fluoro-7-hydroxy-3-[(3-methoxypropyl)amino]-3,4-dihydro-2H-1-benzothiopyran-6-yl}-1λ^6,2,5-thiadiazolidine-1,1,3-trione], the IC50 in experiment [1] (setting [4]) and in experiment [2] was 10 to 100 nM in each case. The EC50 in experiment [3] (setting [5]) stood at 4110 nM.
Regarding `O=C1CN(c2c(O)cc3c(c2F)C[C@H](NCC2CCC(C(F)(F)F)CC2)CS3)S(=O)(=O)N1` (stereo partly drawn) [Compound 139, 5-[(3S)-5-fluoro-7-hydroxy-3-({[4-(trifluoromethyl)cyclohexyl]methyl}amino)-3,4-dihydro-2H-1-benzothiopyran-6-yl]-1λ^6,2,5-thiadiazolidine-1,1,3-trione], the “Thiochromane x-fold>potency biochemical” value in experiment [1] (Table 3) is listed as 5.4. In addition, the figures for the concentration for half-maximal inhibition (IC50) in experiment [1] (setting [4]) and in experiment [2] were less than 10 nM and 10 to 100 nM, respectively. The 50% effective concentration (EC50) in experiment [3] (setting [5]) and in experiment [3] (setting [6]) was more than 50000 nM in each case. Moreover, in experiment [3] (Table 3), the “Thiochromane x-fold>potency cellular” value is recorded as approximately 1.0.
For `CCCCN[C@@H]1CSc2cc(O)c(N3CC(=O)NS3(=O)=O)c(F)c2C1` [Compound 112, 5-[(3S)-3-(butylamino)-5-fluoro-7-hydroxy-3,4-dihydro-2H-1-benzothiopyran-6-yl]-1λ^6,2,5-thiadiazolidine-1,1,3-trione], the figures for the 50% inhibitory concentration (IC50) in experiment [1] (setting [4]) and in experiment [2] were less than 10 nM and 10 to 100 nM, respectively. Also, the half-maximal effective concentration (EC50) in experiment [3] (setting [5]) was determined as 1210 nM.
`N[C@@H]1CSc2cc(O)c(N3CC(=O)NS3(=O)=O)c(F)c2C1` [Compound 102, 5-[(3S)-3-amino-5-fluoro-7-hydroxy-3,4-dihydro-2H-1-benzothiopyran-6-yl]-1λ^6,2,5-thiadiazolidine-1,1,3-trione]: the “Thiochromane x-fold>potency biochemical” value in experiment [1] (Table 3) is reported as 1.7. Further, the half-inhibitory concentration (IC50) in experiment [1] (Table 3, thiochromanes (X = S) and chromane comparators (X = O)) is 31 nM; in experiment [1] (setting [4]), 10 to 100 nM; in experiment [2], more than 100 nM.

As usually defined, the IC50 is the concentration at which inhibition is half-maximal. The EC50 is the concentration at which the effect is half-maximal.
